{
  "source": "ChEMBL document CHEMBL4152300",
  "about": "“Discovery of the selective and efficacious inhibitors of FLT3 mutations” (Eur J Med Chem, 2018)",
  "key": {"[1]": {"biological_target": "Cyclin-dependent kinase 6 (Homo sapiens, UniProt Q00534)", "sequence (Q00534 whole entry)": "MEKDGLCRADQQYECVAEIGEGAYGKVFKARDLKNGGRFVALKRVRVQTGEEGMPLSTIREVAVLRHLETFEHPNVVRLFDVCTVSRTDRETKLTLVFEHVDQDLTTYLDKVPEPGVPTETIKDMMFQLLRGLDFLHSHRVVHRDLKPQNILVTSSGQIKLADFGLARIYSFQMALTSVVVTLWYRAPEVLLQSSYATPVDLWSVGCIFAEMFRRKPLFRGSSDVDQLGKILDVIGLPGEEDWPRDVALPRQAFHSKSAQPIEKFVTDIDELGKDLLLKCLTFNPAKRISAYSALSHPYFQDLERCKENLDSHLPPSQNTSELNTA", "test": "Inhibition of CDK6 (unknown origin) assessed as residual activity at 0.123 uM by Hotspot assay relative to control"}, "[2]": {"test": "Half life in human liver microsomes preincubated for 5 mins followed by NADPH addition by LC-MS/MS analysis", "format": "ADME, microsome"}, "[3]": {"test": "Intrinsic clearance in human liver microsomes preincubated for 5 mins followed by NADPH addition by LC-MS/MS analysis", "format": "ADME, microsome", "conditions": "read-out: CLH"}, "[4]": {"biological_target": "T1, Vascular endothelial growth factor receptor 2 (Homo sapiens, UniProt P35968)", "T1 sequence (P35968 whole entry)": "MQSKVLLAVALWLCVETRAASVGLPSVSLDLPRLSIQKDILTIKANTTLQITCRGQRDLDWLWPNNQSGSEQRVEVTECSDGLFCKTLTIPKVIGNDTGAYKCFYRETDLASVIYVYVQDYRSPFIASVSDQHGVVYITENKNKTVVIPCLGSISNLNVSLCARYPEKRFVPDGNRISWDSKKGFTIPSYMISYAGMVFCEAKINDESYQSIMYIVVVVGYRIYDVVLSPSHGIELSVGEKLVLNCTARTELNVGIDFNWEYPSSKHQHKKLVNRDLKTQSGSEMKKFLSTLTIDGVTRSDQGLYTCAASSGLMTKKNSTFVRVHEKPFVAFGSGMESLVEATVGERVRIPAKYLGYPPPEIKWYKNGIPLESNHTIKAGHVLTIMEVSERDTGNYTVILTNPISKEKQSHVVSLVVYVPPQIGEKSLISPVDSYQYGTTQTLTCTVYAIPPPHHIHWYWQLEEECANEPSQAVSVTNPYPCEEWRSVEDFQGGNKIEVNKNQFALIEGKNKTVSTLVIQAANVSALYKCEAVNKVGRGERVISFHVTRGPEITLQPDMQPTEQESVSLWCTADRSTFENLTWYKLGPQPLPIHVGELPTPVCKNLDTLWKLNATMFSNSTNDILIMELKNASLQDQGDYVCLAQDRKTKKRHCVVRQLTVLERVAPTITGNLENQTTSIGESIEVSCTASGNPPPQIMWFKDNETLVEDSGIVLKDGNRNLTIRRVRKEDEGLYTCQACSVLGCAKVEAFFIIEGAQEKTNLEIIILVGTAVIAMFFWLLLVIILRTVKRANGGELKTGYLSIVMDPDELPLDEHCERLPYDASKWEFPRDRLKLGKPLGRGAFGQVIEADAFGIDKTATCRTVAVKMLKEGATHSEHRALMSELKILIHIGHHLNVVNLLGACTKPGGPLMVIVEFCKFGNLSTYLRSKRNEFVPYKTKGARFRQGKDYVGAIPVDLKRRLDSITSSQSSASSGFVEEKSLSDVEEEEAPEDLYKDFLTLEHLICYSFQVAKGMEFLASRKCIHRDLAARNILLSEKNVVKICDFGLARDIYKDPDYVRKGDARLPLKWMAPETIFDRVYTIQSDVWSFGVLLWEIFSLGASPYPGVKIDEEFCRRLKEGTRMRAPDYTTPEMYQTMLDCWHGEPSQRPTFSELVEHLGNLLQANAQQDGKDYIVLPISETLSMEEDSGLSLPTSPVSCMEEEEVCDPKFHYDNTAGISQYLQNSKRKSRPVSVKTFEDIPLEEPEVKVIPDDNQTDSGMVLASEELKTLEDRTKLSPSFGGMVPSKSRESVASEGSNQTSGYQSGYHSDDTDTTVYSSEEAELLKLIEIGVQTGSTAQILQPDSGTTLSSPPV", "test": "Inhibition of human KDR by Hotspot assay"}, "[5]": {"biological_target": "T2, Vascular endothelial growth factor receptor 3 (Homo sapiens, UniProt P35916)", "T2 sequence (P35916 whole entry)": "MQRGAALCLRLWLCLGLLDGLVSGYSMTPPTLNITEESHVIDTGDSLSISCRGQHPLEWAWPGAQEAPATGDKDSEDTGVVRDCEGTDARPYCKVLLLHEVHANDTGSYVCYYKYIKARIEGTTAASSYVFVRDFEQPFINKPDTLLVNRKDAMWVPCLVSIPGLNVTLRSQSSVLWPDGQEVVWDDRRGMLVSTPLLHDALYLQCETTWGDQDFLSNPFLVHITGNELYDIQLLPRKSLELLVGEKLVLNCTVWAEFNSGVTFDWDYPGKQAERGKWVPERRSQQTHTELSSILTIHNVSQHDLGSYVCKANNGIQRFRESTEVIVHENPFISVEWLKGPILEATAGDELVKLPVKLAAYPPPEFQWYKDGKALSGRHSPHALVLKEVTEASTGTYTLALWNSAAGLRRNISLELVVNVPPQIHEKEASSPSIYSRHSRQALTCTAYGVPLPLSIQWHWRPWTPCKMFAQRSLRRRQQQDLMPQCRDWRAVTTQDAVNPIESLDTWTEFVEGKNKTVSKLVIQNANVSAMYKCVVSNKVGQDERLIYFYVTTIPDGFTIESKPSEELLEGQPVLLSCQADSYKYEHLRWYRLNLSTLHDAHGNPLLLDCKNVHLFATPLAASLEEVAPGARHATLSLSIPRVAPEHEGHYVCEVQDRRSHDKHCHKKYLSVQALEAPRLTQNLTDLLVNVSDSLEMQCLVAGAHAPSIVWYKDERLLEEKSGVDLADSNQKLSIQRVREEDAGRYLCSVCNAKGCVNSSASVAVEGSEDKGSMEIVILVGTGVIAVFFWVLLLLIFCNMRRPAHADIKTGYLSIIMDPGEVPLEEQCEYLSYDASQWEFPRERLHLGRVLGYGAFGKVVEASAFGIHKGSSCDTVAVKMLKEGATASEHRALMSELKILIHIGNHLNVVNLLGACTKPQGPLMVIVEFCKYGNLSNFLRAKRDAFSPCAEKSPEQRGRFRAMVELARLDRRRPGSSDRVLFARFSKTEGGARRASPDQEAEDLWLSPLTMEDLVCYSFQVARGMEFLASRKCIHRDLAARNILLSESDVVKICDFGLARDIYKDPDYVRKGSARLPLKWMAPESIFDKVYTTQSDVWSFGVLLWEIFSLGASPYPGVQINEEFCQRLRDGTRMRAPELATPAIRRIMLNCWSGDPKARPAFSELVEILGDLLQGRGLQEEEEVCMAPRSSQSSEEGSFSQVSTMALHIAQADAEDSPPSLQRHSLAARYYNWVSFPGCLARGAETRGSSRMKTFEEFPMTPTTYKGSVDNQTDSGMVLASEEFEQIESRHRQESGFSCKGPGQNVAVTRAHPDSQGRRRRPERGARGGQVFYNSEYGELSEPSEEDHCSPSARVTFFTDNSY", "test": "Inhibition of human FLT4 by Hotspot assay"}, "[6]": {"biological_target": "Vascular endothelial growth factor receptor 1 (Homo sapiens, UniProt P17948)", "sequence (P17948 whole entry)": "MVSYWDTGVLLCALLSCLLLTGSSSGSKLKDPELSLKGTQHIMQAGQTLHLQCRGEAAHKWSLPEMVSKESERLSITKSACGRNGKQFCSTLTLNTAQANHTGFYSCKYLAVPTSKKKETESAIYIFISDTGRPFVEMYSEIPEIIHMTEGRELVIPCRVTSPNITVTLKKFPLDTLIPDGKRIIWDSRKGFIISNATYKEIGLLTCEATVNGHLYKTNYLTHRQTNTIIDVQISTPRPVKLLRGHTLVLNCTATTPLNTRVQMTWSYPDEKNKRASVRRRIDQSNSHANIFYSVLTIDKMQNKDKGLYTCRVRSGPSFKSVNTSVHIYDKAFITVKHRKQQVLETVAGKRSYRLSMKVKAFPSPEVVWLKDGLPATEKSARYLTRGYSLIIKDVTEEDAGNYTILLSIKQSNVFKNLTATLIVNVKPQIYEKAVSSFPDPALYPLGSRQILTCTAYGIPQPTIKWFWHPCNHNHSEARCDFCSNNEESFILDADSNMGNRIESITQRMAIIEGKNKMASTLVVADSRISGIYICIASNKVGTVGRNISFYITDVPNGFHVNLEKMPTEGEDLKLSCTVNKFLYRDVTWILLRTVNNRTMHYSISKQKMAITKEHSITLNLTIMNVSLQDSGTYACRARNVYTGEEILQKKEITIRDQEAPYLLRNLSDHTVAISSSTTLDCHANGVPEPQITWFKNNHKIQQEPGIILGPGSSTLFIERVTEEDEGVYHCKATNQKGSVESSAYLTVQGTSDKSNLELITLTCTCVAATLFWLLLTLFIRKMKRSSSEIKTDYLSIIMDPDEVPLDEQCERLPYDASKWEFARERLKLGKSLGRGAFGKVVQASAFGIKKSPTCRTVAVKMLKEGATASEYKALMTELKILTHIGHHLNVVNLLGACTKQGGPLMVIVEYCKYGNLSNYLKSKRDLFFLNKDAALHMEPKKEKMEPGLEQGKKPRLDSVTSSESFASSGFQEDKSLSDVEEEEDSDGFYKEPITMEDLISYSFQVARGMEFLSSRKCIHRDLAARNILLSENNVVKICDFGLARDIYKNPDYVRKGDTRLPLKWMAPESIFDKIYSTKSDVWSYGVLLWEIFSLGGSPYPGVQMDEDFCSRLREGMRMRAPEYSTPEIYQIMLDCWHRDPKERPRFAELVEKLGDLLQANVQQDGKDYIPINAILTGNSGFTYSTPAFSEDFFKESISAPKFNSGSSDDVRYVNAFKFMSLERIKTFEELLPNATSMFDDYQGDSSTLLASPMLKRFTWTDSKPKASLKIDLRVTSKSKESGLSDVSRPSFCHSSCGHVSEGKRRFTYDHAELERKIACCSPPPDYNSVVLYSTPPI", "test": "Inhibition of human FLT1 at 0.123 uM by Hotspot assay relative to control"}, "[7]": {"biological_target": "T1, Vascular endothelial growth factor receptor 2", "test": "Inhibition of human KDR at 0.123 uM by Hotspot assay relative to control"}, "[8]": {"biological_target": "T2, Vascular endothelial growth factor receptor 3", "test": "Inhibition of human FLT4 at 0.123 uM by Hotspot assay relative to control"}, "Homo sapiens": {"organism": "Homo sapiens", "test": "Selectivity ratio of IC50 for human FLT4 to IC50 for human FLT3"}, "[9]": {"biological_target": "T3, Receptor-type tyrosine-protein kinase FLT3 (Homo sapiens, UniProt P36888)", "test": "Inhibition of human FLT3 F594_R595insREY mutant by Hotspot assay"}, "[10]": {"biological_target": "T4, Receptor-type tyrosine-protein kinase FLT3 (Homo sapiens, UniProt P36888, ITD)", "test": "Inhibition of human FLT3 ITD-NPOS mutant by Hotspot assay"}, "[11]": {"biological_target": "T4, Receptor-type tyrosine-protein kinase FLT3", "test": "Inhibition of human FLT3 ITD-W51 mutant by Hotspot assay"}, "[12]": {"biological_target": "T3, Receptor-type tyrosine-protein kinase FLT3", "test": "Inhibition of human FLT3 R595_E596 mutant by Hotspot assay"}, "[13]": {"biological_target": "T3, Receptor-type tyrosine-protein kinase FLT3", "test": "Inhibition of human FLT3 Y591-V592 mutant by Hotspot assay"}, "[14]": {"biological_target": "Receptor-type tyrosine-protein kinase FLT3 (Homo sapiens, UniProt P36888, D835Y)", "test": "Binding affinity to human FLT3 D835Y mutant (Q580 to Y969 residues) expressed in bacterial expression system by Kinomescan method"}, "[15]": {"biological_target": "Receptor-type tyrosine-protein kinase FLT3 (Homo sapiens, UniProt P36888, F691L/ITD)", "test": "Binding affinity to human FLT3 ITD/F691L double mutant expressed in bacterial expression system by Kinomescan method"}, "MOLM-13": {"tested_on": "MOLM-13", "test": "Growth inhibition of human MOLM13 cells harboring FLT3-ITD after 72 hrs by Cell-Titer Glo assay", "format": "functional, cell-based", "conditions": "MOLM-13, 72 h"}, "K562": {"tested_on": "K562", "test": "Growth inhibition of FLT3 null human K562 cells after 72 hrs by Cell-Titer Glo assay", "format": "functional, cell-based", "conditions": "K562, 72 h"}, "[16]": {"biological_target": "T3, Receptor-type tyrosine-protein kinase FLT3", "test": "Inhibition of FLT3 phosphorylation at Tyr589/591 residues in human MV4-11 cells after 4 hrs by Western blot analysis", "format": "cell-based"}, "[17]": {"biological_target": "T3, Receptor-type tyrosine-protein kinase FLT3", "test": "Inhibition of FLT3 in human MV4-11 cells assessed as reduction in STAT5 phosphorylation at Tyr694 residue after 4 hrs by Western blot analysis", "format": "cell-based"}, "[18]": {"biological_target": "T3, Receptor-type tyrosine-protein kinase FLT3", "test": "Inhibition of FLT3 in human MV4-11 cells assessed as reduction in ERK1/2 phosphorylation at Thr202/Tyr204 residues after 4 hrs by Western blot analysis", "format": "cell-based"}, "MV4-11 [19]": {"tested_on": "MV4-11", "test": "Induction of apoptosis in human MV4-11 cells assessed as live cells at 0.2 uM after 24 hrs by Annexin V-FITC/propidium iodide staining based flow cytometry (reference value: 100%)", "format": "functional"}, "MV4-11 [20]": {"tested_on": "MV4-11", "test": "Induction of apoptosis in human MV4-11 cells assessed as early apoptotic cells at 0.2 uM after 24 hrs by Annexin V-FITC/propidium iodide staining based flow cytometry (reference value: 0%)", "format": "functional"}, "MV4-11 [21]": {"tested_on": "MV4-11", "test": "Induction of apoptosis in human MV4-11 cells assessed as late apoptotic cells at 0.2 uM after 24 hrs by Annexin V-FITC/propidium iodide staining based flow cytometry (reference value: 0%)", "format": "functional"}, "MV4-11 [22]": {"tested_on": "MV4-11", "test": "Induction of apoptosis in human MV4-11 cells assessed as live cells at 0.5 uM after 24 hrs by Annexin V-FITC/propidium iodide staining based flow cytometry (reference value: 100%)", "format": "functional"}, "MV4-11 [23]": {"tested_on": "MV4-11", "test": "Induction of apoptosis in human MV4-11 cells assessed as late apoptotic cells at 0.5 uM after 24 hrs by Annexin V-FITC/propidium iodide staining based flow cytometry (reference value: 0%)", "format": "functional"}, "MV4-11 [24]": {"tested_on": "MV4-11", "test": "Induction of apoptosis in human MV4-11 cells assessed as necrotic cells at 0.5 uM after 24 hrs by Annexin V-FITC/propidium iodide staining based flow cytometry (reference value: 0%)", "format": "functional"}, "MV4-11 [25]": {"tested_on": "MV4-11", "test": "Induction of apoptosis in human MV4-11 cells after 24 hrs by Annexin V-FITC/propidium iodide staining based flow cytometry", "format": "functional, cell-based"}, "[26]": {"biological_target": "T5, Receptor-type tyrosine-protein kinase FLT3 (Homo sapiens, UniProt P36888)", "T5 sequence (P36888 whole entry)": "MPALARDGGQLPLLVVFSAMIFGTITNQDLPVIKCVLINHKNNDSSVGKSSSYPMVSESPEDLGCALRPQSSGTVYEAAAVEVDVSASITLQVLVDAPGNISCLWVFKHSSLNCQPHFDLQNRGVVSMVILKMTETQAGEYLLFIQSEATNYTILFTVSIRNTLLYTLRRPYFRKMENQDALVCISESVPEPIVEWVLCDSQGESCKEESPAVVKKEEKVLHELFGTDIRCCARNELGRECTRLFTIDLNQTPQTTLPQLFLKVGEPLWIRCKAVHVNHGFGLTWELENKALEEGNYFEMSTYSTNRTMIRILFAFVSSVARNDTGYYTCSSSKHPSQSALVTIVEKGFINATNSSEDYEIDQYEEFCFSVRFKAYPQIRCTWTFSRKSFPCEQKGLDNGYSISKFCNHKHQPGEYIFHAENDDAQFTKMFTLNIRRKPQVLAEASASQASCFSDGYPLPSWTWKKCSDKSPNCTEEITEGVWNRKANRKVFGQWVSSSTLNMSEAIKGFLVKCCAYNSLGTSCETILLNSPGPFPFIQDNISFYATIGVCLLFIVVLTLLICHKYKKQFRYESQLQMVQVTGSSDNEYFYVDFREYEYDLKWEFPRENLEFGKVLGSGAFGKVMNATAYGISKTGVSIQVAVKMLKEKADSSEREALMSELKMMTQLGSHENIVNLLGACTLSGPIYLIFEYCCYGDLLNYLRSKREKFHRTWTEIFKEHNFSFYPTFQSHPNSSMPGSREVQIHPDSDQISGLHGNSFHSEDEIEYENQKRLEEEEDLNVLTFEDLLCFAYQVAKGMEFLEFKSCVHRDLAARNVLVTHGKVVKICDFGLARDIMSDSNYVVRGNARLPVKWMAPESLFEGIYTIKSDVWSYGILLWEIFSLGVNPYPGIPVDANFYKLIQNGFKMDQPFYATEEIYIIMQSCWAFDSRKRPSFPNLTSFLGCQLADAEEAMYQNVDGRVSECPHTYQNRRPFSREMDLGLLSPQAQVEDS", "description": "Inhibition of human FLT3 by Hotspot assay"}},
  "data": [
    {"compound": "Cc1nc2c(c(Nc3c[nH]nc3C(=O)Nc3ccc(N4CCNCC4)cc3)n1)CCC2", "values": [
      {"measurement": "Activity", "setting": "[1]", "result": 91.2, "unit": "%"},
      {"measurement": "half-life", "setting": "[2]", "result": 2.45, "unit": "h"},
      {"measurement": "microsomal CLint", "setting": "[3]", "result": 9.4, "unit": "µL/min/mg"},
      {"measurement": "IC50", "setting": "[4]", "result": 0.0946, "unit": "µM"},
      {"measurement": "IC50", "setting": "[5]", "result": 0.023, "unit": "µM"},
      {"measurement": "inhibition", "setting": "[6]", "result": "> 50", "unit": "%"},
      {"measurement": "inhibition", "setting": "[7]", "result": "> 50", "unit": "%"},
      {"measurement": "inhibition", "setting": "[8]", "result": "> 50", "unit": "%"},
      {"measurement": "Ratio IC50", "setting": "Homo sapiens", "result": 120},
      {"measurement": "IC50", "setting": "[9]", "result": 0.00915, "unit": "µM"},
      {"measurement": "IC50", "setting": "[10]", "result": 0.0149, "unit": "µM"},
      {"measurement": "IC50", "setting": "[11]", "result": 0.0129, "unit": "µM"},
      {"measurement": "IC50", "setting": "[12]", "result": 0.00874, "unit": "µM"},
      {"measurement": "IC50", "setting": "[13]", "result": 0.0153, "unit": "µM"},
      {"measurement": "Kd", "setting": "[14]", "result": 0.00533, "unit": "µM"},
      {"measurement": "Kd", "setting": "[15]", "result": 0.0131, "unit": "µM"},
      {"measurement": "IC50", "setting": "MOLM-13", "result": 0.037, "unit": "µM"},
      {"measurement": "IC50", "setting": "K562", "result": 11.6, "unit": "µM"},
      {"measurement": "inhibition", "setting": "[16]", "result": "Dose-dependent effect"},
      {"measurement": "inhibition", "setting": "[17]", "result": "Dose-dependent effect"},
      {"measurement": "inhibition", "setting": "[18]", "result": "Dose-dependent effect"},
      {"measurement": "Activity", "setting": "MV4-11 [19]", "result": 62.2, "unit": "%"},
      {"measurement": "Activity", "setting": "MV4-11 [20]", "result": 23, "unit": "%"},
      {"measurement": "Activity", "setting": "MV4-11 [21]", "result": 12.8, "unit": "%"},
      {"measurement": "Activity", "setting": "MV4-11 [22]", "result": 29, "unit": "%"},
      {"measurement": "Activity", "setting": "MV4-11 [23]", "result": 9.77, "unit": "%"},
      {"measurement": "Activity", "setting": "MV4-11 [24]", "result": 0.83, "unit": "%"},
      {"measurement": "Activity", "setting": "MV4-11 [25]", "result": "Dose-dependent effect"},
      {"measurement": "IC50", "setting": "[26]", "result": "0.00019 to 0.00021", "unit": "µM"}
    ]}
  ]
}
